Legend:
[1] = tested on: proliferating PC12 cells; settings: cited from earlier work
[2] = tested on: neuronally differentiated PC12 cells; settings: cited from earlier work; for concentration of maximal protection from death: camptothecin-treated; for cell death: day 6, in the presence or absence of camptothecin, both or individual
[3] = tested on: cortical neurons; settings: cited from earlier work; for IC50: protection against camptothecin-induced death
[4] = tested on: rat sympathetic neurons; settings: camptothecin-treated; cited from earlier work
[5] = tested on: neuronal PC12 cells and sympathetic neurons; settings: two model systems of neuronal survival; cited from earlier work
[6] = tested on: CDK-cyclin protein kinases; settings: moderate inhibitory activity; cited from earlier work
[7] = tested on: cAMP- and cGMP-dependent kinases, and protein kinase C; settings: cited from earlier work
[8] = tested on: PC-3 Human Prostate Tumor; experiment: Subrenal capsule assay, inhibition of PC-3 tumor growth; format: in vivo, Nude Mice; settings: for V/V0 (mean ± s.e.m.): 12 days, Experiment # 1; for %T/C: day 12, Experiment # 1
Description: Nude mice were housed in microisolator cages under positive air pressure. Surgical procedures and dosing were performed in a laminar flow cabinet. The subrenal capsule assay was performed as described in Bogden, A. E., Kelton, D. E., Cobb, W. R. and Esber, H. J. A rapid screening method for testing chemotherapeutic agents against human tumor xenografts. In: D. P. Houchens and A. A. Ovejera (eds.), Proceedings of the Symposium on the Use of Athymic (Nude) Mice in Cancer Research, pp 231-250. New York: Gustav Fischer New York, Inc. 1978. Briefly, tumors of 400-500 mm^3 obtained from maintenance mice were cut into 1 mm^3 pieces and the sizes checked using an ocular micrometer and a dissecting microscope. After exteriorization of the kidney, tumor pieces were implanted under the capsule of the kidneys of male nude mice (6-8 weeks of age) using a 13 Ga trochar. After implantation, the longest and shortest diameters of the tumor piece were measured using the ocular micrometer and a dissecting microscope. The kidney was placed back into the body cavity and the body wall incision closed with silk sutures and the skin incision closed with wound clips. Drug treatment was begun on the day following implantation and continued for 12 days at which time the kidneys were again exteriorized and tumor size measured as described above. Tumor volume was calculated by the formula, V = length x width^2/2 as described in Houchens, D. P., Ovejera, A. A., and Barker, A. D. The therapy of human tumors in athymic (nude) mice. In : D. P. Houchens and A. A. Ovejera (eds.), Proceedings of the Symposium on the Use of Athymic (Nude) Mice in Cancer Research, pp. 267-280. New York: Gustav Fischer New York, Inc., 1978.

[9] = camptothecin-treated neuronal cells

SMILES	minimum concentration that fully inhibits DNA synthesis [1] [µM]	concentration of maximal protection from death [2] [µM]	cell death [2]	IC50 [3] [µM]	concentration of maximal protection from death [4] [µM]	death of neuronal cells [5]	prevention of cell death [2, 9]	prevention of cell death [3, 9]	IC50 [6] [µM]	effect on other major protein kinases [7]	V/V0 (mean ± s.e.m.) ([8]; 1 mg/kg i.p. daily)	%T/C ([8]; 1 mg/kg i.p. daily) [%]	V/V0 (mean ± s.e.m.) ([8]; 3 mg/kg i.p. daily)	%T/C ([8]; 3 mg/kg i.p. daily) [%]
CN1CC[C@H](c2c(O)cc(O)c3c(=O)cc(-c4ccccc4Cl)oc23)[C@H](O)C1 [flavopiridol]	1	1	approximately 30%	0.1	1	suppress the death								
Cn1cnc2nc(NCCO)nc(NCc3ccccc3)c21 [iso-olomoucine]							failed to prevent the cell death	failed to prevent the cell death						
Cn1cnc2c(NCc3ccccc3)nc(NCCO)nc21 [Olomoucine, 6-(benzylamino)-2-[(2-hydroxyethyl)amino]-9-methylpurine]	200	200	approximately 30%	100	200	suppress the death			~7	no effect				
Cl.Cl.N[C@H]1CC[C@H](Nc2nc(NCc3cccc(I)c3)c3ncn(C4CCCC4)c3n2)CC1 [Example 1, 2-[Trans-(4-aminocyclohexyl)amino]-6-(3-iodobenzylamino)-9-cyclopentylpurine dihydrochloride]											4.8 ± 3.1	109	2.0 ± 1.0	44

Source: EP1056745B1, “6,9-DISUBSTITUTED 2- TRANS-(4- AMINOCYCLOHEXYL) AMINO]PURINES” (Aventis Pharmaceuticals Inc., priority 1998, dated 1999)
